Measured values from patent US20060147400A1, “Composition, especially a cosmetic composition, containing at least one alkyl para-hydroxybenzoate and at least one lipophilic amino acid derivative” (L'Oreal, priority 2002, published 2006).

Test: Solubility of alkyl para-hydroxybenzoates in a solubilizer/solvent (80° C., stirring one hour, dissolution monitored over time)
Format: physicochemical
Settings: comparative; same amount (60% by weight) in water, conventionally used solvent
Protocol: Protocol: The alkyl para-hydroxybenzoates are weighed out and placed in a hermetic pill bottle. The required amount of lipophilic amino acid derivative (solubilizer) is added. The suspension is brought to 80° C. and stirred. by magnetic stirring for one hour. The dissolution or non-dissolution of the alkyl para-hydroxybenzoate and its change over time are then monitored. The insolubility of the alkyl para-hydroxybenzoate in the solubilizer is characterized macroscopically by a precipitate or just a cloudy solution, and microscopically by the presence of crystals.

CCCOC(=O)c1ccc(O)cc1 [propyl para-hydroxybenzoate]
dissolution or non-dissolution in water: formation of insoluble crystals and a paste
